The source of these data is patent publication US10167300B2, “Metalloenzyme inhibitor compounds as fungicides” (priority 2014, dated 2019).

Like-named read-outs stand apart in the source and are kept apart here. Bounds are passed on as bounds.

The subject of series [1] is Mycosphaerella graminicola; Anamorph: Septoria tritici; Bayer Code SEPTTR (standard laboratory isolate, SI SEPTTR). The experiment in a line: Type A (high volume) assay, leaf blotch of wheat, standard laboratory SEPTTR isolate (SI SEPTTR). Format: in vivo, Mycosphaerella graminicola on wheat plants (variety Yuma). The conditions noted are these: Zymoseptoria tritici, standard laboratory isolate, high volume, 50 ppm, wheat (Yuma). An outline of the steps: (§1)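 Wheat seedlings (Yuma, first leaf emerged) sprayed with acetone/Triton X-100 solutions (Type A) or 10% EC diluted in 0.1% Trycol at 200 L/ha (Type B), inoculated before or after spraying. Inoculated plants held 3 days at 20 °C, 100% RH, then greenhouse; % disease control from severity versus untreated plants.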

In series [2] the test system is Mycosphaerella graminicola; Anamorph: Septoria tritici; Bayer Code SEPTTR (field isolate collected from Wellsbourne, England in 2012, FI SEPTTR). Description: Type B (low volume, EC formulation, track sprayer 200 L/ha) assay, leaf blotch of wheat, SEPTTR field isolate (FI SEPTTR). The class given is in vivo, Mycosphaerella graminicola on wheat plants (variety Yuma). The settings on record: field isolate, low volume EC, 100 g/ha, wheat (Yuma); for Disease Control, FI SEPTTR Type B Assay (100 g/ha) 3 DC: 3 Day Curative; for Disease Control, FI SEPTTR Type B Assay (100 g/ha) 3 DP: 3 Day Protectant. The method in brief: as §1

Experiment in series [3]: as above
The class given is in vivo, Mycosphaerella graminicola on wheat plants (variety Yuma). The conditions noted are these: Zymoseptoria tritici, 72 h, field isolate, low volume EC, 100 g/ha, wheat (Yuma). An outline of the steps: as §1

The subject of series [4] is Mycosphaerella graminicola; Anamorph: Septoria tritici; Bayer Code SEPTTR (standard laboratory isolate, SI SEPTTR). The experiment in a line: Type B (low volume, EC formulation, track sprayer 200 L/ha) assay, leaf blotch of wheat, standard laboratory SEPTTR isolate (SI SEPTTR). Format: in vivo, Mycosphaerella graminicola on wheat plants (variety Yuma). The conditions noted are these: Zymoseptoria tritici, 72 h, standard laboratory isolate, low volume EC, 100 g/ha, wheat (Yuma). The method in brief:
as §1

Setting [5] is: 24 h, 1 Day Protectant, read-out: Disease Control, SI SEPTTR Type A Assay (50 ppm) 1 DP.
[6] abbreviates: 3 Day Curative, read-out: Disease Control, FI SEPTTR Type B Assay (100 g/ha) 3 DC.
Setting [7] is: 3 Day Protectant, read-out: Disease Control, FI SEPTTR Type B Assay (100 g/ha) 3 DP.
Where [8] appears, read: 3 Day Curative, read-out: Disease Control, SI SEPTTR Type B Assay (100 g/ha) 3 DC.
Setting [9] is: 3 Day Protectant, read-out: Disease Control, SI SEPTTR Type B Assay (100 g/ha) 3 DP.

On to `CC(O)(Cc1cncnc1)c1ccc(-c2ccc(Cl)cc2)cn1` (centres unmarked) [Compound 25, 2-[5-(4-chlorophenyl)-2-pyridyl]-1-pyrimidin-5-yl-propan-2-ol], for which the melting point was 150 to 155 °C. In addition, the pest or weed control at 50 ppm in series [1] (setting [5]) fell in the range of 40 to 59%. Also, the pest or weed control at 50 ppm in series [1] (72 h, 3 Day Curative, read-out: Disease Control, SI SEPTTR Type A Assay (50 ppm) 3 DC) was 80 to 100%.

In the case of `CC(C)(C)C(O)(Cc1cncnc1)c1ccc(-c2ccc(SC(F)(F)F)cc2)cn1` (centres unmarked) [Compound 231], in series [2], the “Disease Control, FI SEPTTR Type B Assay (100 g/ha) 3 DC” value was “D (<40)” and the “Disease Control, FI SEPTTR Type B Assay (100 g/ha) 3 DP” value is “B (60-79)”.

As for `CCOC(CC)(c1cncnc1)c1ccc(-c2ccc(OC(F)(F)F)cc2F)cn1` (centres unmarked) [Compound 193], in series [2], the “Disease Control, FI SEPTTR Type B Assay (100 g/ha) 3 DC” value is on record as “D (<40)” and the “Disease Control, FI SEPTTR Type B Assay (100 g/ha) 3 DP” value is “B (60-79)”.

For the molecule `Cc1ncncc1C(O)(c1ccc(-c2ccc(OC(F)(F)F)cc2F)cn1)C(C)(C)C` (centres unmarked) [Compound 157], the pest or weed control at 100 g/ha in series [3] (setting [6]), in series [3] (setting [7]), in series [4] (setting [8]) and in series [4] (setting [9]) was 80 to 100% in each case. Further, in series [1] (setting [5]), the pest or weed control at 50 ppm was 80 to 100%.

For the molecule `Cc1ncc(C(O)(c2ccc(-c3ccc(OC(F)(F)F)cc3)cn2)C(C)(C)C)cn1` (centres unmarked) [Compound 83], the pest or weed control at 100 g/ha in series [3] (setting [6]) is 80 to 100%; in series [3] (setting [7]) it was 40 to 59%; in series [4] (setting [8]), less than 40%; in series [4] (setting [9]), 40 to 59%. In series [1] (setting [5]), the pest or weed control at 50 ppm fell in the range of 40 to 59%.

By melting point is commonly meant the temperature of the solid-liquid transition.
